Target: Mcl-1 protein (UniProtKB primary accession number: Q07820) (Homo sapiens, UniProt Q07820)
Experiment: Inhibition of Mcl-1 by fluorescence polarisation, Method 1
Assay type: binding
Conditions: Method 1, or Method 2 where the value is underlined (underlining not visible); for IC50: fluorescence polarisation test, read-out: IC50 (M) Mcl-1 FP; for percentage fluorescence polarisation inhibition (Mcl-1 FP), partial inhibitors: test compound at 10 uM
How it was run: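 Buffer of 10 mM HEPES pH 7.4 with 150 mM NaCl and 0.05% Tween 20 held 5 nM Mcl-1 and 1 nM fluorescein-tagged ligand (final). Compounds were tested as 11-point serial dilutions at 5% final DMSO, and binding was read by FP.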

Chain of Mcl-1 protein (Q07820 whole entry): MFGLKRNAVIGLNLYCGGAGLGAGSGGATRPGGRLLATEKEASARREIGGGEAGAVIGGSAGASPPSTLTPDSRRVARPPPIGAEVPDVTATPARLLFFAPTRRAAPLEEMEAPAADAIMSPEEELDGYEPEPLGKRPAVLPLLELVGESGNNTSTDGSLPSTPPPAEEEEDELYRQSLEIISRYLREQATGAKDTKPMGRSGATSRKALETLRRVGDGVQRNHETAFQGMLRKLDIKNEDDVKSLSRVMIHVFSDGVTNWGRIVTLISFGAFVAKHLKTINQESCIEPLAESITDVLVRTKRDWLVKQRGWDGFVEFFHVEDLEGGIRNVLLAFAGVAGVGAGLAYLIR

SMILES	IC50	percentage fluorescence polarisation inhibition (Mcl-1 FP), partial inhibitors
COCCOC(=O)C(Cc1ccccc1OCc1ccnc(-c2ccccc2OCCOC)n1)Oc1ncnc2sc(-c3ccc(F)cc3)c(-c3ccc(OCCN(C)C)c(Cl)c3C)c12 [Example 800, 2-methoxyethyl (2R)-2-{[(5Sa)-5-{3-chloro-4-[2-(dimethylamino)ethoxy]-2-methylphenyl}-6-(4-fluorophenyl)thieno[2,3-d]pyrimidin-4-yl]oxy}-3-[2-({2-[2-(2-methoxyethoxy)phenyl]pyrimidin-4-yl}methoxy)phenyl]propanoate]	1.39e-06 M	
CCOC(=O)C(Cc1ccccc1OCc1ccnc(-c2ccccc2F)n1)Oc1ncnc2sc(-c3ccc(F)cc3)c(-c3ccc(OCCN(C)CC)c(Cl)c3C)c12 [Example 801, ethyl (2R)-2-{[(5Sa)-5-(3-chloro-4-{2-[ethyl(methyl)amino]ethoxy}-2-methylphenyl)-6-(4-fluorophenyl)thieno[2,3-d]pyrimidin-4-yl]oxy}-3-(2-{[2-(2-fluorophenyl)pyrimidin-4-yl]methoxy}phenyl)propanoate]	4.37e-06 M	
CCN(C)CCOc1ccc(-c2c(-c3ccc(F)cc3)sc3ncnc(OC(Cc4ccccc4OCc4ccnc(-c5ccccc5F)n4)C(=O)OCCOC)c23)c(C)c1Cl [Example 803, 2-methoxyethyl (2R)-2-{[(5Sa)-5-(3-chloro-4-{2-[ethyl(methyl)amino]ethoxy}-2-methylphenyl)-6-(4-fluorophenyl)thieno[2,3-d]pyrimidin-4-yl]oxy}-3-(2-{[2-(2-fluorophenyl)pyrimidin-4-yl]methoxy}phenyl)propanoate]	3.14e-06 M	
CCOC(=O)C(Cc1ccccc1OCc1ccnn1C(C)(C)C)Oc1ncnc2sc(-c3cccc(F)c3F)c(-c3ccc(OCCN(C)C)c(Cl)c3C)c12 [Example 804, ethyl (2R)-3-{2-[(1-tert-butyl-1H-pyrazol-5-yl)methoxy]phenyl}-2-{[(5Sa)-5-{3-chloro-4-[2-(dimethylamino)ethoxy]-2-methylphenyl}-6-(2,3-difluorophenyl)thieno[2,3-d]pyrimidin-4-yl]oxy}propanoate]	4.68e-05 M	
COCCOC(=O)[C@@H](Cc1ccccc1OCc1ccnn1C(C)(C)C)Oc1ncnc2sc(-c3cccc(F)c3F)c(-c3ccc(OCCN(C)C)c(Cl)c3C)c12 [Example 805, 2-methoxyethyl (2R)-3-{2-[(1-tert-butyl-1H-pyrazol-5-yl)methoxy]phenyl}-2-{[(5Sa)-5-{3-chloro-4-[2-(dimethylamino)ethoxy]-2-methylphenyl}-6-(2,3-difluorophenyl)thieno[2,3-d]pyrimidin-4-yl]oxy}propanoate]		53.5% @ 10 uM
CCOC(=O)C(Cc1ccccc1OCc1ccnc(-c2ccccc2OCCOC)n1)Oc1ncnc2sc(-c3ccc(F)cc3)c(-c3ccc(OCCN(C)C)c(Cl)c3C)c12 [Example 806, ethyl (2R)-2-{[(5Sa)-5-{3-chloro-4-[2-(dimethylamino)ethoxy]-2-methylphenyl}-6-(4-fluorophenyl)thieno[2,3-d]pyrimidin-4-yl]oxy}-3-[2-({2-[2-(2-methoxyethoxy)phenyl]pyrimidin-4-yl}methoxy)phenyl]propanoate]	1.63e-06 M	
CCOC(=O)[C@@H](Cc1ccccc1OCc1ccnc(-c2ccccc2F)n1)Oc1ncnc2sc(-c3ccc(F)cc3)c(-c3ccc(OCCN(C)C)c(Cl)c3C)c12 [Example 807, ethyl (2R)-2-{[(5Sa)-5-{3-chloro-4-[2-(dimethylamino)ethoxy]-2-methylphenyl}-6-(4-fluorophenyl)thieno[2,3-d]pyrimidin-4-yl]oxy}-3-(2-{[2-(2-fluorophenyl)pyrimidin-4-yl]methoxy}phenyl)propanoate]		52.45% @ 10 uM
Cc1c(-c2c(-c3ccc(F)cc3)sc3ncnc(OC(Cc4ccccc4OCc4ccnc(-c5ccccc5F)n4)C(=O)OCC(=O)N(C)C)c23)ccc(OCCN(C)C)c1Cl [Example 818, 2-(dimethylamino)-2-oxoethyl (2R)-2-{[(5Sa)-5-{3-chloro-4-[2-(dimethylamino)ethoxy]-2-methylphenyl}-6-(4-fluorophenyl)thieno[2,3-d]pyrimidin-4-yl]oxy}-3-(2-{[2-(2-fluorophenyl)pyrimidin-4-yl]methoxy}phenyl)propanoate]	1.12e-06 M	
COCCOc1ccccc1-c1nccc(COc2ccccc2CC(Oc2ncnc3sc(-c4ccc(F)cc4)c(-c4ccc(OCCN(C)C)c(Cl)c4C)c23)C(=O)OCC(=O)N(C)C)n1 [Example 819, 2-(dimethylamino)-2-oxoethyl (2R)-2-{[(5Sa)-5-{3-chloro-4-[2-(dimethylamino)ethoxy]-2-methylphenyl}-6-(4-fluorophenyl)thieno[2,3-d]pyrimidin-4-yl]oxy}-3-[2-({2-[2-(2-methoxyethoxy)phenyl]pyrimidin-4-yl}methoxy)phenyl]propanoate]	1.57e-07 M	
Cc1c(-c2c(-c3ccc(F)cc3)sc3ncnc(OC(Cc4ccccc4OCc4ccnn4C(C)(C)C)C(=O)OCOC(=O)C(C)(C)C)c23)ccc(OCCN(C)C)c1Cl [Example 821, {[(2R)-3-{2-[(1-tert-butyl-1H-pyrazol-5-yl)methoxy]phenyl}-2-{[(5Sa)-5-{3-chloro-4-[2-(dimethylamino)ethoxy]-2-methylphenyl}-6-(4-fluorophenyl)thieno[2,3-d]pyrimidin-4-yl]oxy}propanoyl]oxy}methyl 2,2-dimethylpropanoate]	3.61e-07 M	

The next lines start with the values.

IC50	percentage fluorescence polarisation inhibition (Mcl-1 FP), partial inhibitors	SMILES
2.75e-06 M		CCOC(=O)C(Cc1ccccc1OCc1ccnc(-c2ccccc2F)n1)Oc1ncnc2sc(-c3ccc(F)cc3)c(-c3ccc(OCCN4CCN(C)CC4)c(Cl)c3C)c12 [Example 797, ethyl (2R)-2-{[(5Sa)-5-{3-chloro-2-methyl-4-[2-(4-methylpiperazin-1-yl)ethoxy]phenyl}-6-(4-fluorophenyl)thieno[2,3-d]pyrimidin-4-yl]oxy}-3-(2-{[2-(2-fluorophenyl)pyrimidin-4-yl]methoxy}phenyl)propanoate]
5.15e-06 M		CCOC(=O)C(Cc1ccccc1OCc1ccnc(-c2ccccc2O)n1)Oc1ncnc2sc(-c3ccc(F)cc3)c(-c3ccc(OCCN4CCNCC4)c(Cl)c3C)c12 [Example 798, ethyl (2R)-2-{[(5Sa)-5-{3-chloro-2-methyl-4-[2-(piperazin-1-yl)ethoxy]phenyl}-6-(4-fluorophenyl)thieno[2,3-d]pyrimidin-4-yl]oxy}-3-(2-{[2-(2-hydroxyphenyl)pyrimidin-4-yl]methoxy}phenyl)propanoate]
	59.6% @ 10 uM	COCCOC(=O)[C@@H](Cc1ccccc1OCc1ccnc(-c2ccccc2F)n1)Oc1ncnc2sc(-c3ccc(F)cc3)c(-c3ccc(OCCN(C)C)c(Cl)c3C)c12 [Example 799, 2-methoxyethyl (2R)-2-{[(5Sa)-5-{3-chloro-4-[2-(dimethylamino)ethoxy]-2-methylphenyl}-6-(4-fluorophenyl)thieno[2,3-d]pyrimidin-4-yl]oxy}-3-(2-{[2-(2-fluorophenyl)pyrimidin-4-yl]methoxy}phenyl)propanoate]
2.88e-06 M		COCCOC(=O)C(Cc1ccccc1OCc1ccnn1C(C)(C)C)Oc1ncnc2sc(-c3ccc(F)cc3)c(-c3ccc(OCCN(C)C)c(Cl)c3C)c12 [Example 802, 2-methoxyethyl (2R)-3-{2-[(1-tert-butyl-1H-pyrazol-5-yl)methoxy]phenyl}-2-{[(5Sa)-5-{3-chloro-4-[2-(dimethylamino)ethoxy]-2-methylphenyl}-6-(4-fluorophenyl)thieno[2,3-d]pyrimidin-4-yl]oxy}propanoate]
	19.95% @ 10 uM	CCCCCCCCOC(=O)[C@@H](Cc1ccccc1OCc1ccnc(-c2ccccc2OC)n1)Oc1ncnc2sc(-c3ccc(F)cc3)c(-c3ccc(OCCN4CCN(C)CC4)c(Cl)c3C)c12 [Example 815, octyl (2R)-2-{[(5Sa)-5-{3-chloro-2-methyl-4-[2-(4-methylpiperazin-1-yl)ethoxy]phenyl}-6-(4-fluorophenyl)thieno[2,3-d]pyrimidin-4-yl]oxy}-3-(2-{[2-(2-methoxyphenyl)pyrimidin-4-yl]methoxy}phenyl)propanoate]
1.72e-07 M		Cc1c(-c2c(-c3ccc(F)cc3)sc3ncnc(OC(Cc4ccccc4OCc4ccnc(-c5ccccc5F)n4)C(=O)OCC(=O)N(C)C)c23)ccc(OCCN2CCN(C)CC2)c1Cl [Example 816, 2-(dimethylamino)-2-oxoethyl (2R)-2-{[(5Sa)-5-{3-chloro-2-methyl-4-[2-(4-methylpiperazin-1-yl)ethoxy]phenyl}-6-(4-fluorophenyl)thieno[2,3-d]pyrimidin-4-yl]oxy}-3-(2-{[2-(2-fluorophenyl)pyrimidin-4-yl]methoxy}phenyl)propanoate]
4.75e-07 M		Cc1c(-c2c(-c3ccc(F)cc3)sc3ncnc(OC(Cc4ccccc4OCc4ccnn4C(C)(C)C)C(=O)OCC(=O)N(C)C)c23)ccc(OCCN(C)C)c1Cl [Example 817, 2-(dimethylamino)-2-oxoethyl (2R)-3-{2-[(1-tert-butyl-1H-pyrazol-5-yl)methoxy]phenyl}-2-{[(5Sa)-5-{3-chloro-4-[2-(dimethylamino)ethoxy]-2-methylphenyl}-6-(4-fluorophenyl)thieno[2,3-d]pyrimidin-4-yl]oxy}propanoate]
1.29e-08 M		Cc1oc(=O)oc1COC(=O)C(Cc1ccccc1OCc1ccnn1C(C)(C)C)Oc1ncnc2sc(-c3ccc(F)cc3)c(-c3ccc(OCCN(C)C)c(Cl)c3C)c12 [Example 820, (5-methyl-2-oxo-1,3-dioxol-4-yl)methyl (2R)-3-{2-[(1-tert-butyl-1H-pyrazol-5-yl)methoxy]phenyl}-2-{[(5Sa)-5-{3-chloro-4-[2-(dimethylamino)ethoxy]-2-methylphenyl}-6-(4-fluorophenyl)thieno[2,3-d]pyrimidin-4-yl]oxy}propanoate]

Reference: patent publication US9670227B2, “Thienopyrimidine derivatives, a process for their preparation and pharmaceutical compositions containing them” (LES LABORATOIRES SERVIER, priority 2013, dated 2017)
